The results in this text go back to PubChem BioAssay (NCI).

Test systems include MALME-3M melanoma; MCF7 breast; DU-145 prostate; CCRF-CEM leukemia; UACC-257 melanoma; NCI/ADR-RES ovarian; SK-MEL-2 melanoma; COLO 205 colon; SNB-75 CNS; SF-295 CNS.
Common to all, as to assay: NCI tumour cell line growth inhibition, 48 h

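These data come from cells grown in 96-well plates and exposed to compound for 48 hours at five concentrations. GI50 is the concentration that inhibits growth by half. TGI is the concentration that stops growth completely.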

On to `O=C(Nc1ccccc1O)c1ccc(CNC(=O)c2sccc2Nc2ccnc(C(F)(F)F)c2)cc1`, for which the GI50 was 2.5 µM with MALME-3M melanoma; 2.65 µM with MCF7 breast; 6.1 µM in the assay on DU-145 prostate; 1.01 µM with CCRF-CEM leukemia; 4.61 µM with UACC-257 melanoma; 4.67 µM in the assay on NCI/ADR-RES ovarian. Moreover, the GI50 is 6.97 µM with SK-MEL-2 melanoma, 5.38 µM in the assay on COLO 205 colon, 4.96 µM with SNB-75 CNS and 8.33 µM with SF-295 CNS. The TGI in the assay with MALME-3M melanoma is 21.5 µM; in the assay on MCF7 breast, 41.8 µM; in the assay on DU-145 prostate, 21 µM; in the assay on CCRF-CEM leukemia it was over 100 µM; with UACC-257 melanoma, 38.1 µM; in the assay with NCI/ADR-RES ovarian, 46.9 µM. Further, the TGI was determined as 28.5 µM in the assay on SK-MEL-2 melanoma, 19.2 µM with COLO 205 colon, 44.5 µM with SNB-75 CNS and 21.8 µM in the assay with SF-295 CNS.
Take `CCCCCCC#CC#Cc1cccc(=O)o1`: the GI50 is 1.56 µM in the assay with MALME-3M melanoma; 2.22 µM in the assay with MCF7 breast; 3.31 µM in the assay with DU-145 prostate; 0.265 µM in the assay on CCRF-CEM leukemia; 2.21 µM in the assay on UACC-257 melanoma; 2.59 µM in the assay with NCI/ADR-RES ovarian. The GI50 in the assay with SK-MEL-2 melanoma is 9.27 µM; in the assay on COLO 205 colon, 9.5 µM; with SNB-75 CNS it was 4.34 µM; with SF-295 CNS it was 6.75 µM. For the same molecule, the TGI in the assay on MALME-3M melanoma is 3.79 µM; with MCF7 breast, 22.3 µM; in the assay on DU-145 prostate, 8.26 µM; in the assay on CCRF-CEM leukemia, over 19.8 µM; with UACC-257 melanoma, 7.87 µM; with NCI/ADR-RES ovarian, 15.7 µM. In addition, the TGI in the assay on SK-MEL-2 melanoma is over 100 µM; with COLO 205 colon it was 20 µM; in the assay with SNB-75 CNS it was 37.3 µM; with SF-295 CNS, 22.4 µM.
On to `C[C@@H](Oc1ccc2[nH]nc(/C=C/c3cnn(CCO)c3)c2c1)c1c(Cl)cncc1Cl`, for which the GI50 in the assay with MALME-3M melanoma is 1.86 µM; in the assay with MCF7 breast, 0.0573 µM; in the assay with DU-145 prostate, 0.413 µM; in the assay on CCRF-CEM leukemia, 0.105 µM; in the assay on UACC-257 melanoma, 1.43 µM; with NCI/ADR-RES ovarian, 0.697 µM. Also, the GI50 in the assay with SK-MEL-2 melanoma was 1.37 µM; in the assay on COLO 205 colon, 0.107 µM; in the assay with SNB-75 CNS, 0.159 µM; with SF-295 CNS it was 0.0785 µM. The TGI in the assay with MALME-3M melanoma was 4.68 µM; with MCF7 breast, 4.06 µM; in the assay on DU-145 prostate, over 43.6 µM; in the assay with CCRF-CEM leukemia, 5 µM; in the assay with UACC-257 melanoma, 6.29 µM; with NCI/ADR-RES ovarian it was 3.81 µM. The TGI in the assay with SK-MEL-2 melanoma is 3.08 µM; with COLO 205 colon it was 0.306 µM; in the assay on SNB-75 CNS, 0.561 µM; in the assay on SF-295 CNS it was 23.7 µM.
Regarding `CC(=O)c1cc2c(c3ccsc13)-c1ccccc1CC2`, the GI50 with MALME-3M melanoma was 15.7 µM; in the assay with MCF7 breast, 21 µM; with DU-145 prostate, 23.5 µM; with CCRF-CEM leukemia, 21.7 µM; in the assay with UACC-257 melanoma it was 47.1 µM; in the assay with NCI/ADR-RES ovarian it was 16.6 µM. Also, the GI50 in the assay with SK-MEL-2 melanoma is 26.5 µM; with COLO 205 colon it was 42 µM; in the assay with SNB-75 CNS, over 100 µM; in the assay with SF-295 CNS, 26.5 µM. Further, the TGI was 55.2 µM in the assay on MALME-3M melanoma; over 100 µM with MCF7 breast; over 100 µM in the assay on DU-145 prostate; 62.1 µM in the assay on CCRF-CEM leukemia; over 100 µM in the assay with UACC-257 melanoma; 44.8 µM in the assay on NCI/ADR-RES ovarian. The TGI in the assay on SK-MEL-2 melanoma was 83 µM; with COLO 205 colon, over 100 µM; in the assay with SNB-75 CNS, over 100 µM; in the assay on SF-295 CNS, over 100 µM.
`CC(C)(C)[Si](C)(C)OCC1C=CC(n2cnc3c(N)ncnc32)O1` (stereo not given): the TGI in the assay on MALME-3M melanoma is over 100 µM; in the assay on MCF7 breast, over 75.4 µM; in the assay with DU-145 prostate it was over 100 µM; with CCRF-CEM leukemia it was 39.8 µM; in the assay with UACC-257 melanoma, 98.4 µM; in the assay on NCI/ADR-RES ovarian, over 100 µM. Also, the TGI was over 100 µM with SK-MEL-2 melanoma, over 100 µM with COLO 205 colon, over 81 µM in the assay with SNB-75 CNS and over 100 µM in the assay on SF-295 CNS.
